Measured values taken from US9156827B2, “Anticancer agent” (THE UNIVERSITY OF TOKYO, priority 2010, dated 2015).
Structures can show the parent of a compound that is named as a salt.

Tests used:
[1] = system: Human acute myeloid leukemia MV4-11 cells; test: Cell proliferation-suppressing activity, chromogenic method (Cell Counting Kit-8); format: cell-based; details: compound 1 μM, 48 hours, Cell Counting Kit-8, absorbance 450 nm
Description: Measurement of Cell Proliferation-Suppressing Activity (Chromogenic Method)
Human acute myeloid leukemia MV4-11 cells (2×10^4 cells) are inoculated on a 96-well microtiter plate. Each compound is added at a final concentration of 1 μM on the next day, and the cells are cultured for additional 48 hours. Absorbance is measured at 450 nm by using Cell Counting Kit-8 (Nacalai Tesque) to calculate the cell proliferation-suppressing activity.

[2] = target: pim-1 kinase (Homo sapiens, UniProt P11309); test: Measurement of pim-1 kinase inhibitory activity (fluorescent substrate peptide, capillary electrophoresis); format: biochemical; details: 0.1 μM of each compound, 30 μM ATP, 1.5 μM substrate peptide, room temperature 2 hours
Sequence of pim-1 kinase (P11309 whole entry): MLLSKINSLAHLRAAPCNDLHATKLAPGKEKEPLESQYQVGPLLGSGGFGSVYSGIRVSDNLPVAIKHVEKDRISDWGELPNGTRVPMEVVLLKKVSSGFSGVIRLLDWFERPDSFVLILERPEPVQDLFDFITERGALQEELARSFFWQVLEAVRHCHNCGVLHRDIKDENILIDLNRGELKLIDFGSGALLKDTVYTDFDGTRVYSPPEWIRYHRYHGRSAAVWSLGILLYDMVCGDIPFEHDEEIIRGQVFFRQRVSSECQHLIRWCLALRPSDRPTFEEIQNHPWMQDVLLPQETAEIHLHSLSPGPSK
Description: Measurement of Pim-1 Kinase Inhibitory Activity
The result of the reaction was determined by quantifying the substrate and the phosphorylated reaction product separated by capillary electrophoresis based on difference in charges of the substances (EZ Reader II, Caliper Life Sciences, was used).

COc1ccc2c(c1C#CCC1CCNCC1)O/C(=C\c1n[nH]c3ccccc13)C2=O [Compound B58, (Z)-2-[(1H-Indazol-3-yl)methylene]-6-methoxy-7-[3-(piperidin-4-yl)prop-1-ynyl]benzofuran-3(2H)-one]
inhibition at 1 µM ([1]; Table 7): 94%
inhibition at 0.1 µM ([2]; Table 2): 90%

COc1ccc2c(c1/C=C/C1CCNCC1)O/C(=C\c1n[nH]c3ccccc13)C2=O [Compound B64, (Z)-2-[(1H-Indazol-3-yl)methylene]-6-methoxy-7-[(E)-2-(piperidin-4-yl)vinyl]benzofuran-3(2H)-one]
inhibition at 1 µM ([1]; Table 7): 93%
inhibition at 0.1 µM ([2]; Table 2): 81%

COc1ccc2c(c1CCCC1CCNCC1)O/C(=C\c1n[nH]c3ccccc13)C2=O [Compound B60, (Z)-2-[(1H-Indazol-3-yl)methylene]-6-methoxy-7-[3-(piperidin-4-yl)propyl]benzofuran-3(2H)-one]
inhibition at 1 µM ([1]; Table 7): 98%
inhibition at 0.1 µM ([2]; Table 2): 95%

COc1ccc2c(c1CCC1CCNCC1)O/C(=C\c1n[nH]c3ncccc13)C2=O [Compound B72, (Z)-2-[(1H-Pyrazolo[3,4-b]pyridin-3-yl)methylene]-6-methoxy-7-[2-(piperidin-4-yl)ethyl]benzofuran-3(2H)-one]
inhibition at 1 µM ([1]; Table 7): 93%
inhibition at 0.1 µM ([2]; Table 2): 97%

COc1ccc2c(c1/C=C\CCN1CCNCC1)O/C(=C\c1n[nH]c3ccccc13)C2=O [Compound B50, (Z)-2-[(1H-Indazol-3-yl)methylene]-6-methoxy-7-[(Z)-4-(piperazin-1-yl)but-1-enyl]benzofuran-3(2H)-one]
inhibition at 1 µM ([1]; Table 7): 96%
inhibition at 0.1 µM ([2]; Table 2): 82%

O=C1/C(=C/c2c[nH]c3ncccc23)Oc2c(CN3CCNCC3)cccc21 [Compound A58, (Z)-2-[(1H-Pyrrolo[2,3-b]pyridin-3-yl)methylene]-7-(piperazin-1-ylmethyl)benzofuran-3(2H)-one]
inhibition at 1 µM ([1]; Table 6): 72%
inhibition at 0.1 µM ([2]; Table 1): 92%

COc1ccc2c(c1C#CCN1CCNCC1)O/C(=C\c1n[nH]c3ccccc13)C2=O [Compound B46, (Z)-2-[(1H-Indazol-3-yl)methylene]-6-methoxy-7-[3-(piperazin-1-yl)prop-1-ynyl]benzofuran-3(2H)-one]
inhibition at 1 µM ([1]; Table 7): 97%
inhibition at 0.1 µM ([2]; Table 2): 86%

COc1ccc2c(c1/C=C\C1CCNCC1)O/C(=C\c1n[nH]c3ccccc13)C2=O [Compound B56, (Z)-2-[(1H-Indazol-3-yl)methylene]-6-methoxy-7-[(Z)-2-(piperidin-4-yl)vinyl]benzofuran-3(2H)-one]
inhibition at 1 µM ([1]; Table 7): 99%
inhibition at 0.1 µM ([2]; Table 2): 95%

O=C1/C(=C/c2n[nH]c3ncccc23)Oc2c(CN3CCNCC3)cccc21 [Compound B70, (Z)-2-[(1H-Pyrazolo[3,4-b]pyridin-3-yl)methylene]-7-(piperazin-1-ylmethyl)benzofuran-3(2H)-one]
inhibition at 1 µM ([1]; Table 7): 77%
inhibition at 0.1 µM ([2]; Table 2): 94%

COc1ccc2c(c1C1=CCNCC1)O/C(=C\c1n[nH]c3ccccc13)C2=O [Compound B52, (Z)-2-[(1H-Indazol-3-yl)methylene]-6-methoxy-7-(1,2,3,6-tetrahydropyridin-4-yl)benzofuran-3(2H)-one]
inhibition at 1 µM ([1]; Table 7): 98%
inhibition at 0.1 µM ([2]; Table 2): 50%

COc1ccc2c(c1CCC1CCNCC1)O/C(=C\c1n[nH]c3ccccc13)C2=O [Compound B57, (Z)-2-[(1H-Indazol-3-yl)methylene]-6-methoxy-7-[2-(piperidin-4-yl)ethyl]benzofuran-3(2H)-one]
inhibition at 1 µM ([1]; Table 7): 99%
inhibition at 0.1 µM ([2]; Table 2): 89%

CCCOc1ccc2c(c1CN1CCNCC1)O/C(=C\c1c[nH]c3ccccc13)C2=O [Compound A60, (Z)-2-((1H-Indol-3-yl)methylene)-7-(piperazin-1-ylmethyl)-6-propoxybenzofuran-3(2H)-one]
inhibition at 1 µM ([1]; Table 6): 91%
inhibition at 0.1 µM ([2]; Table 1): 84%

COc1ccc2c(c1/C=C\CCC1CCNCC1)O/C(=C\c1n[nH]c3ccccc13)C2=O [Compound B62, (Z)-2-[(1H-Indazol-3-yl)methylene]-6-methoxy-7-[(Z)-4-(piperidin-4-yl)but-1-enyl]benzofuran-3(2H)-one]
inhibition at 1 µM ([1]; Table 7): 93%
inhibition at 0.1 µM ([2]; Table 2): 71%

CCOc1ccc2c(c1CN1CCNCC1)O/C(=C\c1c[nH]c3ccccc13)C2=O [Compound A59, (Z)-2-[(1H-Indol-3-yl)methylene]-6-ethoxy-7-(piperazin-1-ylmethyl)benzofuran-3(2H)-one]
inhibition at 1 µM ([1]; Table 6): 95%
inhibition at 0.1 µM ([2]; Table 1): 92%

COc1ccc2c(c1CCCN1CCNCC1)O/C(=C\c1n[nH]c3ccccc13)C2=O [Compound B48, (Z)-2-[(1H-Indazol-3-yl)methylene]-6-methoxy-7-[3-(piperazin-1-yl)propyl]benzofuran-3(2H)-one]
inhibition at 1 µM ([1]; Table 7): 96%
inhibition at 0.1 µM ([2]; Table 2): 75%

O=C1/C(=C/c2c[nH]c3ccccc23)Oc2c1ccc(O)c2CN1CCCNCC1 [Compound A55, (Z)-7-[(1,4-Diazepan-1-yl)methyl]-2-[(1H-indol-3-yl)methylene]-6-hydroxybenzofuran-3(2H)-one]
inhibition at 1 µM ([1]; Table 6): 79%
inhibition at 0.1 µM ([2]; Table 1): 46%

COc1ccc2c(c1/C=C\CN1CCNCC1)O/C(=C\c1n[nH]c3ccccc13)C2=O [Compound B47, (Z)-2-[(1H-Indazol-3-yl)methylene]-6-methoxy-7-[(Z)-3-(piperizin-1-yl)prop-1-enyl]benzofuran-3(2H)-one (Z)-2-[(1H-Indazol-3-yl)methylene]-6-methoxy-7-[(Z)-3-(piperazin-1-yl)prop-1-enyl]benzofuran-3(2H)-one]
inhibition at 1 µM ([1]; Table 7): 99%
inhibition at 0.1 µM ([2]; Table 2): 84%

COc1ccc2c(c1/C=C/CC1CCNCC1)O/C(=C\c1n[nH]c3ccccc13)C2=O [Compound B65, (Z)-2-[(1H-Indazol-3-yl)methylene]-6-methoxy-7-[(E)-3-(piperidin-4-yl)prop-1-enyl]benzofuran-3(2H)-one]
inhibition at 1 µM ([1]; Table 7): 97%
inhibition at 0.1 µM ([2]; Table 2): 73%

COc1ccc2c(c1C#CC1CCNCC1)O/C(=C\c1n[nH]c3ccccc13)C2=O [Compound B55, (Z)-2-[(1H-Indazol-3-yl)methylene]-6-methoxy-7-(piperidin-4-ylethynyl)benzofuran-3(2H)-one]
inhibition at 1 µM ([1]; Table 7): 99%
inhibition at 0.1 µM ([2]; Table 2): 84%

COc1ccc2c(c1CCCCC1CCNCC1)O/C(=C\c1n[nH]c3ccccc13)C2=O [Compound B63, (Z)-2-[(1H-Indazol-3-yl)methylene]-6-methoxy-7-[4-(piperidin-4-yl)butyl]benzofuran-3(2H)-one]
inhibition at 1 µM ([1]; Table 7): 95%
inhibition at 0.1 µM ([2]; Table 2): 95%

COc1ccc2c(c1Cc1c(C)n[nH]c1C)O/C(=C\c1n[nH]c3ccccc13)C2=O [Compound B73, (Z)-2-[(1H-Indazol-3-yl)methylene]-7-[(3,5-dimethyl-1H-pyrazol-4-yl)methyl]-6-methoxybenzofuran-3(2H)-one]
inhibition at 1 µM ([1]; Table 7): 81%
inhibition at 0.1 µM ([2]; Table 2): 49%

O=C1/C(=C/c2c[nH]c3c([N+](=O)[O-])cccc23)Oc2c1ccc(O)c2CN1CCNCC1 [Compound A27, (Z)-6-Hydroxy-2-[(7-nitro-1H-indol-3-yl)methylene]-7-(piperazin-1-ylmethyl)benzofuran-3(2H)-one dihydrochloride]
inhibition at 0.1 µM ([2]; Table 1): 29%

COc1cc(CN2CCNCC2)c2c(c1)C(=O)/C(=C/c1c[nH]c3ccccc13)O2 [Compound A14, (Z)-2-[(1H-Indol-3-yl)methylene]-5-methoxy-7-(piperazin-1-ylmethyl)benzofuran-3(2H)-one dihydrochloride]
inhibition at 0.1 µM ([2]; Table 1): 87%

O=C1/C(=C/c2c[nH]c3ccc(OCCN4CCOCC4)cc23)Oc2c1ccc(O)c2CN1CCNCC1 [Compound A19, (Z)-6-Hydroxy-2-{[5-(2-morpholinoethoxy)-1H-indol-3-yl]methylene}-7-(piperazin-1-ylmethyl)benzofuran-3(2H)-one dihydrochloride trihydrochloride]
inhibition at 0.1 µM ([2]; Table 1): 62%

COc1ccc2c(c1CN1CCOCC1)O/C(=C\c1c[nH]c3ncccc13)C2=O [Compound A54, (Z)-2-[(1H-Pyrrolo[2,3-b]pyridin-3-yl)methylene]-6-methoxy-7-(morpholinomethyl)benzofuran-3(2H)-one]
inhibition at 0.1 µM ([2]; Table 1): 72%

O=C1/C(=C/c2n[nH]c3ccc(F)cc23)Oc2c1ccc(O)c2CN1CCNCC1 [Compound B8, (Z)-6-Hydroxy-7-(piperazin-1-ylmethyl)-2-[(5-fluoro-1H-indazol-3-yl)methylene]benzofuran-3(2H)-one]
inhibition at 0.1 µM ([2]; Table 2): 81%

Cc1ccc(S(=O)(=O)n2cc(/C=C3\Oc4c(ccc(O)c4CN4CCN(C)CC4)C3=O)c3ccccc32)cc1 [Compound A31, (Z)-6-Hydroxy-7-[(4-methylpiperazin-1-yl)methyl]-2-[(1-tosyl-1H-indol-3-yl)methylene]benzofuran-3(2H)-one]
inhibition at 0.1 µM ([2]; Table 1): 47%

O=C1/C(=C/c2c[nH]c3nc(-c4ccccc4)ccc23)Oc2c1ccc(O)c2CN1CCNCC1 [Compound A49, (Z)-6-Hydroxy-2-[(6-phenyl-1H-pyrrolo[2,3-b]pyridin-3-yl)methylene]-7-(piperazin-1-ylmethyl)benzofuran-3(2H)-one trihydrochloride]
inhibition at 0.1 µM ([2]; Table 1): 16%

O=C1/C(=C/c2c[nH]c3ccccc23)Oc2c1ccc(O)c2CN1CCSCC1 [Compound A4, (Z)-2-[(1H-Indol-3-yl)methylene]-6-hydroxy-7-(thiomorpholinomethyl)benzofuran-3(2H)-one]
inhibition at 0.1 µM ([2]; Table 1): 19%

O=C1/C(=C/c2n[nH]c3ccccc23)Oc2c1ccc(O)c2C(=O)N1CCNCC1 [Compound B36, (Z)-2-[(1H-Indazol-3-yl)methylene]-6-hydroxy-7-(piperazine-1-carbonyl)benzofuran-3(2H)-one]
inhibition at 0.1 µM ([2]; Table 2): 31%
